Bounds are passed on as bounds.

This test has as its target T1, ALK (Homo sapiens, UniProt Q9UM73).
T1 construct: purchased Millipore
The test is described as follows: ALK kinase assay (HTRF), apparent Ki. The test is classed as biochemical. The settings on record: apparent Ki from IC50 by Cheng-Prusoff; ALK (Millipore), 50 μM ATP; read-out: HTRF_ALK Human-Ki. As to the method:
The following procedure is used to determine ALK Activity.
ALK kinase assays were conducted with the indicated final concentrations unless otherwise specified. In 384 well black plates (Axygen), 8 μl of compound (2% DMSO) was incubated with 8 μl Lck-peptide substrate (0.5 μM, biotin-Ahx-GAEEEIYAAFFA-COOH) and 8 μl of a mixture of ALK (3 nM, Millipore) and ATP (50 μM) in reaction buffer (50 mM Hepes, pH 7.4; 10 mM MgCl2; 2 mM MnCl2; 0.1 mM sodium orthovanadate; 0.01% BSA and 1 mM DTT (added fresh before assay) for 1 h at room temperature. Reactions were then quenched by the addition of 30 μl quench solution (streptavidin-allophycocyanin and Europium-cryptate PT66 monoclonal antibody in 40 mM Hepes, pH 7.4; 480 mM KF; 66 mM EDTA; 0.01% Tween-20; and 0.1% BSA) at room temperature. Plates were read 1 h after quenching on an Envision Multilaber Reader and IC50 values were calculated using a sigmoidal fit of the concentration/inhibition response curves. These values were converted to apparent Ki values using the Cheng-Prusoff relationship.
Alternatively, 4 nM ALK (Millipore) and 50 μM ATP were pre-incubated for 30 min at room temperate in 384 well plates (Corning 3676) in 2.5× reaction buffer (125 nM SEB from Cisbio Bioassays, 12.5 mM MgCl2, 5 mM MnCl2, and 2.5 mM DTT). Reactions were initiated by the addition of 4 μl ALK-ATP mixture to 2 μl compounds (2% DMSO) and 4 μl TK-substrate biotin (Cisbio Bioassays). After incubation for 1 h at room temperature, reactions were quenched in 10 μl stop buffer (Cisbio detection buffer containing Streptavididn-XL665 and Eu-Cryptate PT66 monoclonal antibody). Plates were read 1 h after quenching on an Envision Multilaber Reader and IC50 values were calculated using a sigmoidal fit of the concentration/inhibition response curves. These values were converted to apparent Ki values using the Cheng-Prusoff relationship. Results are shown in Table 1 A correlates to an Ki=<100 nM, B correlates to an Ki between 100 nM and 1 μM, C correlates to an Ki=>1 μM.
Background: In TR-FRET formats the signal depends on donor and acceptor labels being close together.

T1 sequence (Q9UM73 19-1620): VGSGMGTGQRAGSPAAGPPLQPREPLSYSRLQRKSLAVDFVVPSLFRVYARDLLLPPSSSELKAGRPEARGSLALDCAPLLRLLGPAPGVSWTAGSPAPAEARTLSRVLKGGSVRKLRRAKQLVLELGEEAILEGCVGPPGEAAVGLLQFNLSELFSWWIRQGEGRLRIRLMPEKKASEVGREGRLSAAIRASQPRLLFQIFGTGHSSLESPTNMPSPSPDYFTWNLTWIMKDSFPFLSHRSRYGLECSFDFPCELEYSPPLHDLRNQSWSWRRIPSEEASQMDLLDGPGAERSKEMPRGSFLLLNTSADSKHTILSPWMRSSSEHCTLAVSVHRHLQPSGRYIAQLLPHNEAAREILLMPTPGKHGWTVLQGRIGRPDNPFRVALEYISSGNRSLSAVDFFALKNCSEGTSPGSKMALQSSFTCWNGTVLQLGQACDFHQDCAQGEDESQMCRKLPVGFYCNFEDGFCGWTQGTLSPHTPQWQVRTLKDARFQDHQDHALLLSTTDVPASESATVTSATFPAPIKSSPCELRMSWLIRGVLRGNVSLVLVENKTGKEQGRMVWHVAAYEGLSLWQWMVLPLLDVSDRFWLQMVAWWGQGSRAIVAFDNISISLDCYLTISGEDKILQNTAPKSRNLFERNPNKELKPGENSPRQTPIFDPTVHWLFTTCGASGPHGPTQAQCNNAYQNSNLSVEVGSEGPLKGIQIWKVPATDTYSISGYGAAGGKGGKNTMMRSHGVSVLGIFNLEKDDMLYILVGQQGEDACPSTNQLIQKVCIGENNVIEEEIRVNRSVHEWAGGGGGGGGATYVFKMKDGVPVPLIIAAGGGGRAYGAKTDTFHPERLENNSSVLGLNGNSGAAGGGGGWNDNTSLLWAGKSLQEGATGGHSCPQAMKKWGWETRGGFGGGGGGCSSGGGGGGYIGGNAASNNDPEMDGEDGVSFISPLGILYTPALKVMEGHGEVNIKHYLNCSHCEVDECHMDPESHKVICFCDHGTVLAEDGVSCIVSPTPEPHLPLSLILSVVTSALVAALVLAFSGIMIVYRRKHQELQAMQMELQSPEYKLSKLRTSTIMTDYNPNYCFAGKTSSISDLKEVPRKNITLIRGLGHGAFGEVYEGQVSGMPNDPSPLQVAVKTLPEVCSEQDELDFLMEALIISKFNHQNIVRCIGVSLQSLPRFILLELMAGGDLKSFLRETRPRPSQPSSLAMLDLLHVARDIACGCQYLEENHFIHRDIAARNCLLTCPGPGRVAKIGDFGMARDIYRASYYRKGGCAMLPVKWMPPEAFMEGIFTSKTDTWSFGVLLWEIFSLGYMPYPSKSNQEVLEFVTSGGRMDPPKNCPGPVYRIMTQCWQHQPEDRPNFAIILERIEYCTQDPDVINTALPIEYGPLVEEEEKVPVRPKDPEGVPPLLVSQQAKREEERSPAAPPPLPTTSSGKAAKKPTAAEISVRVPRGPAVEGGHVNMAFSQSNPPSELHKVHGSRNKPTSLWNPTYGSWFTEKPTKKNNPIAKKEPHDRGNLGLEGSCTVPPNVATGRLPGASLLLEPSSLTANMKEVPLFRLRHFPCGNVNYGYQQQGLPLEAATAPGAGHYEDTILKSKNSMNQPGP

Regarding `CN1CCN(c2ccc(Nc3cc(-c4cccc(Cl)c4)cnc3C(N)=O)cc2)CC1` [Example 52, 5-(3-chlorophenyl)-3-{[4-(4-methylpiperazin-1-yl)phenyl]amino}pyridine-2-carboxamide], the Ki is greater than 1000 nM.

Consider `CN1CCN(c2cccc(Nc3cc(Cc4ccccc4)cnc3C(N)=O)c2)CC1` [Example 4, 5-benzyl-3-{[3-(4-methylpiperazin-1-yl)phenyl]amino}pyridine-2-carboxamide], for which the Ki fell in the range of 100 to 1000 nM.

In the case of `CN1CCN(c2ccc(Nc3cc(Cc4c(F)cccc4F)cnc3C(N)=O)cc2)CC1` [Example 15, 5-(2,6-difluorobenzyl)-3-{[4-(4-methylpiperazin-1-yl)phenyl]amino}pyridine-2-carboxamide], the Ki was less than 100 nM.

With `CN1CCN(c2ccc(Nc3cc(Cc4cc(F)cc(F)c4)cnc3C(N)=O)cc2)CC1` [Example 18, 5-(3,5-difluorobenzyl)-3-{[4-(4-methylpiperazin-1-yl)phenyl]amino}pyridine-2-carboxamide], the Ki is less than 100 nM.

`Cc1cc(N2CCN(C)CC2)ccc1Nc1cc(Cc2ccccc2)cnc1C(N)=O` [Example 9, 5-benzyl-3-{[2-methyl-4-(4-methylpiperazin-1-yl)phenyl]amino}pyridine-2-carboxamide]: the Ki was in the range of 100 to 1000 nM.

As for `CN1CCN(c2ccc(Nc3cc(-c4ccccc4)cnc3C(N)=O)cc2)CC1` [Example 6, 3-{[4-(4-methylpiperazin-1-yl)phenyl]amino}-5-phenylpyridine-2-carboxamide], the Ki is 100 to 1000 nM.

As for `CN1CCN(c2ccc(Nc3cc(-c4cccc(C(N)=O)c4)cnc3C(N)=O)cc2)CC1` [Example 53, 5-(3-carbamoylphenyl)-3-{[4-(4-methylpiperazin-1-yl)phenyl]amino}pyridine-2-carboxamide], the Ki is 100 to 1000 nM.

`Cc1ccccc1-c1cnc(C(N)=O)c(Nc2ccc(N3CCN(C)CC3)cc2)c1` [Example 49, 5-(2-methylphenyl)-3-{[4-(4-methylpiperazin-1-yl)phenyl]amino}pyridine-2-carboxamide]: the Ki was 100 to 1000 nM.

On to `COc1cc(N2CCN(CCN3CCOCC3)CC2)ccc1Nc1cc(Cc2c(F)cccc2Cl)cnc1C(N)=O` [Example 43, 5-(2-chloro-6-fluorobenzyl)-3-[(2-methoxy-4-{4-[2-(morpholin-4-yl)ethyl]piperazin-1-yl}phenyl)amino]pyridine-2-carboxamide], for which the Ki was 100 to 1000 nM.

Turning to `CC(c1cccc(F)c1)c1cnc(C(N)=O)c(Nc2ccc(N3CCN(C)CC3)c(Cl)c2)c1` (stereo not drawn) [Example 36, 3-{[3-chloro-4-(4-methylpiperazin-1-yl)phenyl]amino}-5-[1-(3-fluorophenyl)ethyl]pyridine-2-carboxamide], the Ki was 100 to 1000 nM.

As to `COc1cc(N2CCN(C)CC2)ccc1Nc1cc(Cc2c(F)cccc2Cl)cnc1C(N)=O` [Example 46, 5-(2-chloro-6-fluorobenzyl)-3-{[2-methoxy-4-(4-methylpiperazin-1-yl)phenyl]amino}pyridine-2-carboxamide], the Ki is 100 to 1000 nM.

Take `C=C(c1ccccc1)c1cnc(C(N)=O)c(Nc2ccc(N3CCN(C)CC3)cc2)c1` [Example 10, 3-{[4-(4-methylpiperazin-1-yl)phenyl]amino}-5-(1-phenylvinyl)pyridine-2-carboxamide]: the Ki lay in the range of 100 to 1000 nM.

`CN1CCN(c2ccc(Nc3cc(Nc4ccccc4S(=O)(=O)N(C)C)cnc3C(N)=O)cc2)CC1` [Example 71, 5-{[2-(dimethylsulfamoyl)phenyl]amino}-3-{[4-(4-methylpiperazin-1-yl)phenyl]amino}pyridine-2-carboxamide]: the Ki was in the range of 100 to 1000 nM.

In the case of `CN1CCN(c2ccc(Nc3cc(Cc4ccc(Cl)cc4)cnc3C(N)=O)cc2)CC1` [Example 25, 5-(4-chlorobenzyl)-3-{[4-(4-methylpiperazin-1-yl)phenyl]amino}pyridine-2-carboxamide], the Ki was greater than 1000 nM.

As to `CN1CCN(c2ccc(Nc3cc(Cc4ccc(F)cc4F)cnc3C(N)=O)cc2)CC1` [Example 20, 5-(2,4-difluorobenzyl)-3-{[4-(4-methylpiperazin-1-yl)phenyl]amino}pyridine-2-carboxamide], the Ki fell in the range of 100 to 1000 nM.

These data come from patent US8859546B2, “Picolinamide inhibitors of kinases” (AbbVie Inc., priority 2011, dated 2014).
